In US20170128518A1, “METHODS AND MATERIALS FOR IDENTIFYING AND TREATING MAMMALS RESISTANT TO PROTEASOME INHIBITOR TREATMENTS” (Mayo Foundation for Medical Education and Research, priority 2014, published 2017):

Experiments:
[1] = molecular target: T1, proteasome b2 subunit (trypsin-like activity) (Homo sapiens, UniProt Q99436); assay: Proteasomal activity assay, trypsin-like (LRR-AMC), WM cells; type: biochemical; details: 10 nM; BCWM.1 and BCWM.1/BR shown
T1 construct: Cells were lysed at 4×10^6 cells/ml in proteasomal activity assay buffer; endogenous in cells; host or cells: BCWM.1 and BCWM.1/BR (lysates)
Method: FIGS. 17A-17D are a series of graphs plotting the effects of bortezomib (10 nM), carfilzomib (10 nM) and b-AP15 (10 nM) on caspase-like and trypsin-like proteasomal activities, as assessed in three WT and three BR WM cell lines in vitro using the fluorogenic substrates LLE-AMC (caspase-like activity) and LRR-AMC (trypsin-like activity). Reactions were incubated at 37° C. for 1 hour and the fluorescence was measured at 360/460 and expressed as relative fluorescence units (RFU), using BioTek synergy HT plate reader. Data from two representative cell lines (BCWM.1 and its BR subclone) are shown.
Cells were lysed at 4×10^6 cells/ml in proteasomal activity assay buffer [assay buffer; 25 mmol/1 HEPES buffer, pH7.5 containing 0.5 mmol/1 EDTA, 0.05% Nonidet P-40, 0.01% sodium dodecyl sulfate (SDS)] and immediately used in the assay. Enzyme reactions were performed in 96-well plates with 100 μl of final volume containing […] fluorogenic peptide substrates. The substrates used were LLVY-AMC for chymotrypsin like activity, LLE-AMC for caspase-like activity and LRR-AMC for trypsin-like activity. Reactions were incubated at 37° C. for 1 hour and fluorescence was measured at 360/460 using a BioTek synergy HT plate reader (BioTek, Winooski, Vt.).

[2] = tested on: WM cell lines (BCWM.1, BCWM.1/BR, RPCI-WM1, RPCI-WM/BR); assay: NanoString nCounter gene expression profiling; type: cell-based, human; details: 50 nmol/l (WT) or 100 nmol/l (BR), 24 hours
Method: FIGS. 14A and 14B are diagrams depicting genes altered in b-AP15 treated WM cells. BCWM.1 and RPCI-WM1 were treated with b-AP15 (50 nmol/l), and BR clones were treated with 100 nmol/1 of the DUB inhibitor for 24 hours, followed by collection of RNA for profiling using the NanoString nCounter assay. FIG. 14A is an intersect analysis in which treated (Tx) cell lines were first compared to their untreated counterparts and then against one another to delineate which genes were altered in the same orientation across all four cell lines tested. FIG. 14B is a diagram of an IPA network analysis, depicting the relationship between the 36 genes and illustrating the interaction and relative expression of these genes. The darkness of the node color denotes the degree of differential gene expression as compared to baseline.
Total RNA from four WM cell lines (BCWM.1, BCWM.1/BR, RPCI-WM1 and RPCI-WM/BR) were prepared using Exiqon miRCURY RNA isolation kit (Exiqon, Woburn, Mass. USA) following the manufacturer's instructions. RNA samples were quantitated using a ND-1000 spectrophotometer (NanoDrop) and evaluated for degradation using a 2100 Bioanalyzer (Agilent Technologies, Santa Clara, Calif., USA).
The NanoString nCounter (NanoString, Seattle, Wash.) assay was used for mRNA quantification and expression in WM cells that were treated with b-AP15, as described elsewhere (Geiss et al., Nat Biotechnol 26:317-25, 2008; and Paulus et al., Brit J Haematol 164:352-65, 2014). Briefly, a library is constructed with two sequence-specific probes for the gene of interest. Unique pairs of 3′ reporter and 5′ capture probes are developed to distinguish transcripts for the gene of interest using a color-based barcoding system. The capture probe contains a base pair sequence that is complementary to the target mRNA and linked to a biotin affinity tag, which binds the mRNA of interest. The reporter probe also is also designed to be complementary to the target mRNA, contains a base sequence that is linked to an RNA-based color-coded molecular tag that provides a signal for detection. Using this method, a distinct color code is digitally generated for each gene of interest. In our experiments, all probes were mixed together with total RNA (100 ng from each sample) in a single hybridization reaction for 12 hours at 65° C. in solution. Using the nCounter Prep Station, each probe-mRNA complex was captured post-hybridization onto a streptavidin coated surface, aligned and imaged. Each sample was scanned for 600 FOV on the nCounter Digital Analyzer. As each target mRNA is designated by its unique color code, the level of expression was quantified by counting the number of codes for each molecule. Subsequent normalization of the raw data to internal controls provided by the manufacturer was performed using the nSolver Analysis software v1.1. Data was extracted using the nCounter RCC Collector; based on the positive and negative controls, a cutoff of 20 was used to filter out transcript signals that registered at levels of background noise.
Statistical interpretation and data visualization (heat map) was conducted using Multi Experiment Viewer (MeV) from The Institute for Genomic Research (TIGR) (Saeed et al., Methods Enzymol 411:134-193, 2006; and Saeed et al., Biotechniques 34:374-378, 2003). Using the normalized data that was exported from nCounter RCC Collector, an average of mRNA transcript probe values was taken for each cell line (three biological replicates each) representing controls (untreated) and drug-treated samples, a tab-delimited text file was generated in Microsoft Excel and uploaded into MeV. Genes were log-2 transformed and mean centered. Bi-dimensional, average-linkage, unsupervised hierarchical clustering analysis was applied to find the relationships between samples and genes using the Pearson correlation coefficient.

T1 sequence (Q99436 44-277): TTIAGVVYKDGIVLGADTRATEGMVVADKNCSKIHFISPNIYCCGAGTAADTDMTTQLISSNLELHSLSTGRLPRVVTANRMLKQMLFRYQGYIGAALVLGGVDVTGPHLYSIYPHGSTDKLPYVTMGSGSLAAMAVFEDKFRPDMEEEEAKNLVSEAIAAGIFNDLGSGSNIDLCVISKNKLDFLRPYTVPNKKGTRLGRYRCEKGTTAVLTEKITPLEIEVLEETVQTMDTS

C=CC(=O)N1C/C(=C\c2ccc([N+](=O)[O-])cc2)C(=O)/C(=C/c2ccc([N+](=O)[O-])cc2)C1 [b-AP15]
trypsin-like proteasomal activity [1]: no change in trypsin-like activity | Average fold change, AKT2 [2]: −2.812 fold | Average fold change, BIRC5 [2]: −2.209 fold | Average fold change, BMI1 [2]: −3.09 fold | Average fold change, CASP2 [2]: −3.679 fold | Average fold change, CCNA2 [2]: −5.841 fold | Average fold change, CCND2 [2]: −3 fold | Average fold change, CCNE1 [2]: −4.193 fold | Average fold change, CDC2 [2]: −4.668 fold | Average fold change, CDC25B [2]: −3.629 fold | Average fold change, CDK4 [2]: −2.59 fold | Average fold change, CSK [2]: −3.871 fold | Average fold change, E2F1 [2]: −3.634 fold | Average fold change, EGR1 [2]: 2.27 fold | Average fold change, ETV6 [2]: −4.643 fold | Average fold change, FOS [2]: 5.569 fold | Average fold change, HDAC1 [2]: −2.887 fold | Average fold change, HRAS [2]: −3.277 fold | Average fold change, IL8 [2]: 14.77 fold | Average fold change, JUN [2]: 5.625 fold | Average fold change, MSH2 [2]: −4.367 fold | Average fold change, MSH6 [2]: −4.242 fold | Average fold change, MYB [2]: −9.647 fold | Average fold change, MYBL2 [2]: −2.794 fold | Average fold change, MYC [2]: −3.287 fold | Average fold change, PCNA [2]: −3.166 fold | Average fold change, RAD54L [2]: −3.029 fold | Average fold change, SERPINE1 [2]: 5.734 fold | Average fold change, SPI1 [2]: −2.522 fold | Average fold change, SYK [2]: −3.84 fold | Average fold change, TFDP1 [2]: −4.261 fold | Average fold change, TFRC [2]: −3.192 fold | Average fold change, TOP2A [2]: −6.321 fold | Average fold change, TUBB [2]: −3.724 fold | Average fold change, TYMS [2]: −3.966 fold | Average fold change, XPC [2]: −3.045 fold | Average fold change, XRCC5 [2]: −2.834 fold
